This is an account of results in ChEMBL document CHEMBL6092150, “Exploration of isatin-based inhibitors of SARS-CoV-2 Nsp15 endoribonuclease” (Eur J Med Chem, 2024).

Assay [1] relates to SARS-CoV-2. Briefly: Antiviral activity against SARS-CoV-2 Omicron BA.7 variant infected in human A549 cells transfected with human ACE2 and TMPRSS2 assessed as fold reduction in viral RNA load at 40 uM incubated for 3 days by qRT-PCR analysis relative to control. Conditions: time 3 day. The format is functional, Severe acute respiratory syndrome coronavirus 2. Background: In qPCR the cycle at which signal appears reflects the starting amount.

In assay [2] the test system is SARS-CoV-2. Briefly: Antiviral activity against SARS-CoV-2 Omicron BA.7 variant infected in human A549 cells transfected with human ACE2 and TMPRSS2 assessed as fold reduction in viral RNA load incubated for 3 days by qRT-PCR analysis. The format is functional. Conditions: Severe acute respiratory syndrome coronavirus 2, Omicron BA.7, A549, 72 h; time 3 day.
Assay [3] concerns SARS-CoV-2. Briefly: Antiviral activity against SARS-CoV-2 Omicron BA.7 variant infected in human A549 cells transfected with human ACE2 and TMPRSS2 assessed as fold reduction in viral RNA load at 80 uM incubated for 3 days by qRT-PCR analysis relative to control. The format is functional, Severe acute respiratory syndrome coronavirus 2. Conditions: time 3 day.

For orientation: EC90 means the concentration at which the effect reaches the 90% level. Consider `N#C[C@@]1(c2ccc3c(N)ncnn23)O[C@H](CO)[C@@H](O)[C@H]1O` [GS-441524], for which the “fold change (FC)” value in the assay with SARS-CoV-2 [1] was determined as 72000. In addition, the EC90 in the assay on SARS-CoV-2 [2] is 2 µM.

Regarding `N#CC(C#N)=C1C(=O)Nc2ccc([N+](=O)[O-])cc21`, the “fold change (FC)” value in the assay with SARS-CoV-2 [3] worked out at 425. In the assay on SARS-CoV-2 [2], the EC90 was 54 µM.

Regarding `N#CC(C#N)=C1C(=O)Nc2c(Br)cc(Br)cc21`, the “fold change (FC)” value with SARS-CoV-2 [3] is 68000. Moreover, the concentration for an effect of 90% (EC90) in the assay with SARS-CoV-2 [2] came out at 39 µM.
